According to ChEMBL document CHEMBL6087485, “Novel 3-Sulfonamide Dual-Tail Pyrrol-2-one Bridged Molecules as Potent Human Carbonic Anhydrase Isoform Inhibitors: Design, Synthesis, Molecular Modeling Investigation, and Anticancer Activity in MeWo, SK-BR-3, and MG-63 Cell Lines” (J Med Chem, 2025):
Activity calls are given as the source filed them. The rule behind the calls is not given here.

What was measured:
[1] = target: Carbonic anhydrase 9 (Homo sapiens, UniProt Q16790); test: Inhibition of recombinant human CA-IX incubated for 15 mins by phenol red dye based stopped-flow CO2 hydration assay
[2] = tested on: MeWo; test: Synergistic cytotoxicity against human MeWo cells assessed as inhibition of cell viability incubated for 24 hrs in presence of DOX by MTS assay; type: functional, cell-based
[3] = Synergistic cytotoxicity against human HGF cells assessed as cell viability at 10 uM incubated for 24 hrs in presence of DOX by MTS assay relative to control; type: toxicity, cell-based; conditions: read-out: Activity
[4] = tested on: MG-63; test: Cytotoxicity against human MG-63 cells at 10 uM incubated for 24 hrs by MTS assay; type: functional, cell-based
[5] = Cytotoxicity against human HGF cells assessed as inhibition of cell viability incubated for 24 hrs by MTS assay; type: toxicity, cell-based
[6] = Cytotoxicity against human HGF cells at 10 uM incubated for 24 hrs by MTS assay; type: toxicity, cell-based
[7] = Synergistic cytotoxicity against human HGF cells assessed as inhibition of cell viability incubated for 24 hrs in presence of DOX by MTS assay; type: toxicity, cell-based
[8] = tested on: SK-BR-3; test: Cytotoxicity against human SK-BR-3 cells at 10 uM incubated for 24 hrs by MTS assay; type: functional, cell-based
[9] = tested on: MeWo; test: Cytotoxicity against human MeWo cells assessed as inhibition of cell viability incubated for 24 hrs by MTS assay; type: functional, cell-based
[10] = tested on: MeWo; test: Synergistic cytotoxicity against human MeWo cells assessed as inhibition of cell viability at 10 uM incubated for 24 hrs in presence of DOX by MTS assay; type: functional, cell-based
[11] = tested on: MeWo; test: Cytotoxicity against human MeWo cells at 10 uM incubated for 24 hrs by MTS assay; type: functional, cell-based
[12] = Cytotoxicity against human HGF cells at 50 uM incubated for 24 hrs by MTS assay; type: toxicity, cell-based
[13] = tested on: MG-63; test: Cytotoxicity against human MG-63 cells at 50 uM incubated for 24 hrs by MTS assay; type: functional, cell-based
[14] = tested on: MeWo; test: Cytotoxicity against human MeWo cells at 50 uM incubated for 24 hrs by MTS assay; type: functional, cell-based
[15] = tested on: SK-BR-3; test: Cytotoxicity against human SK-BR-3 cells at 50 uM incubated for 24 hrs by MTS assay; type: functional, cell-based

Structure (SMILES) | Ki [1] [nM] | Activity [4] | Activity [6] | Activity [8] | Activity [11] | other results
COc1ccccc1C1C=C(Nc2cccc(S(N)(=O)=O)c2)C(=O)N1c1cccc(S(N)(=O)=O)c1 (stereo unspecified) | 93.8 |  |  |  |  | 
NS(=O)(=O)c1cccc(NC2=CC(c3ccc(Br)cc3)N(c3cccc(S(N)(=O)=O)c3)C2=O)c1 (stereo unspecified) | 386 |  |  |  |  | 
NS(=O)(=O)c1cccc(NC2=CC(c3ccc(F)cc3)N(c3cccc(S(N)(=O)=O)c3)C2=O)c1 (stereo unspecified) | 50.1 | inactive | Non-toxic | inactive | inactive | IC50 [2]: 11200 nM; viability at 24 h, 10 µM [3]: > 70%; IC50 at 24 h [5]: 85800 nM; IC50 at 24 h [7]: 19600 nM; IC50 [9]: 68600 nM; Activity [10]: Active
NS(=O)(=O)c1cccc(NC2=CC(c3ccco3)N(c3cccc(S(N)(=O)=O)c3)C2=O)c1 (stereo unspecified) | 79.9 |  |  |  |  | 
COc1cccc(C2C=C(Nc3cccc(S(N)(=O)=O)c3)C(=O)N2c2cccc(S(N)(=O)=O)c2)c1O (stereo unspecified) | 7 | inactive | Non-toxic | inactive | inactive | IC50 [2]: 11300 nM; viability at 24 h, 10 µM [3]: > 70%; IC50 at 24 h [5]: 70700 nM; IC50 at 24 h [7]: 27500 nM; IC50 [9]: 63300 nM; Activity [10]: Active
CC(C)c1ccc(C2C=C(Nc3cccc(S(N)(=O)=O)c3)C(=O)N2c2cccc(S(N)(=O)=O)c2)cc1 (stereo unspecified) | 615 |  |  |  |  | 
COc1cc(C2C=C(Nc3cccc(S(N)(=O)=O)c3)C(=O)N2c2cccc(S(N)(=O)=O)c2)ccc1O (stereo unspecified) | 369 |  |  |  |  | 
CCCCc1ccc(C2C=C(Nc3cccc(S(N)(=O)=O)c3)C(=O)N2c2cccc(S(N)(=O)=O)c2)cc1 (stereo unspecified) | 564 | inactive | Non-toxic | inactive | inactive | Activity [12]: Toxic; Activity [13]: Active; Activity [14]: Active; Activity [15]: Active
COc1ccc(C2C=C(Nc3cccc(S(N)(=O)=O)c3)C(=O)N2c2cccc(S(N)(=O)=O)c2)cc1O (stereo unspecified) | 95.1 | inactive | Non-toxic | inactive | inactive | 
COc1ccc(O)c(C2C=C(Nc3cccc(S(N)(=O)=O)c3)C(=O)N2c2cccc(S(N)(=O)=O)c2)c1 (stereo unspecified) | 52.4 |  |  |  |  | 
NS(=O)(=O)c1cccc(NC2=CC(c3ccccc3)N(c3cccc(S(N)(=O)=O)c3)C2=O)c1 (stereo unspecified) | 58 |  |  |  |  | 
NS(=O)(=O)c1cccc(NC2=CC(c3ccccc3O)N(c3cccc(S(N)(=O)=O)c3)C2=O)c1 (stereo unspecified) | 345 | inactive | Non-toxic | inactive | inactive | IC50 [2]: 12300 nM; Activity [12]: Non-toxic; viability at 24 h, 10 µM [3]: > 70%; IC50 at 24 h [5]: 117000 nM; IC50 at 24 h [7]: 36400 nM; IC50 [9]: 94300 nM; Activity [10]: Active; Activity [14]: Active
NS(=O)(=O)c1cccc(NC2=CC(c3cc(C(F)(F)F)cc(C(F)(F)F)c3)N(c3cccc(S(N)(=O)=O)c3)C2=O)c1 (stereo unspecified) | 539 |  |  |  |  | 
COc1ccc(C2C=C(Nc3cccc(S(N)(=O)=O)c3)C(=O)N2c2cccc(S(N)(=O)=O)c2)cc1OC (stereo unspecified) | 87.2 |  |  |  |  | 
N#Cc1ccc(C2C=C(Nc3cccc(S(N)(=O)=O)c3)C(=O)N2c2cccc(S(N)(=O)=O)c2)cc1 (stereo unspecified) | 345 |  |  |  |  | 
NS(=O)(=O)c1cccc(NC2=CC(c3ccc4c(c3)OCO4)N(c3cccc(S(N)(=O)=O)c3)C2=O)c1 (stereo unspecified) | 443 |  |  |  |  | 
COc1cc(C2C=C(Nc3cccc(S(N)(=O)=O)c3)C(=O)N2c2cccc(S(N)(=O)=O)c2)cc(OC)c1O (stereo unspecified) | 30.3 | inactive | Non-toxic | inactive | inactive | 
NS(=O)(=O)c1cccc(NC2=CC(c3ccc(C(F)(F)F)cc3)N(c3cccc(S(N)(=O)=O)c3)C2=O)c1 (stereo unspecified) | 831 |  |  |  |  | 
